# Reference: ChEMBL document CHEMBL5725788, “Tricyclic heterocyclic compounds as phosphoinositide 3-kinase inhibitors” (2017)
# What was measured:
# [1] = molecular target: Phosphatidylinositol 4,5-bisphosphate 3-kinase catalytic subunit gamma isoform (Homo sapiens, UniProt P48736); test: (§1) Biochemical Assay: PI3K Isoform using biochemical assay.
# [2] = molecular target: T1, Phosphatidylinositol 4,5-bisphosphate 3-kinase catalytic subunit delta isoform (Homo sapiens, UniProt O00329); test: as §1
# T1 sequence (O00329 whole entry): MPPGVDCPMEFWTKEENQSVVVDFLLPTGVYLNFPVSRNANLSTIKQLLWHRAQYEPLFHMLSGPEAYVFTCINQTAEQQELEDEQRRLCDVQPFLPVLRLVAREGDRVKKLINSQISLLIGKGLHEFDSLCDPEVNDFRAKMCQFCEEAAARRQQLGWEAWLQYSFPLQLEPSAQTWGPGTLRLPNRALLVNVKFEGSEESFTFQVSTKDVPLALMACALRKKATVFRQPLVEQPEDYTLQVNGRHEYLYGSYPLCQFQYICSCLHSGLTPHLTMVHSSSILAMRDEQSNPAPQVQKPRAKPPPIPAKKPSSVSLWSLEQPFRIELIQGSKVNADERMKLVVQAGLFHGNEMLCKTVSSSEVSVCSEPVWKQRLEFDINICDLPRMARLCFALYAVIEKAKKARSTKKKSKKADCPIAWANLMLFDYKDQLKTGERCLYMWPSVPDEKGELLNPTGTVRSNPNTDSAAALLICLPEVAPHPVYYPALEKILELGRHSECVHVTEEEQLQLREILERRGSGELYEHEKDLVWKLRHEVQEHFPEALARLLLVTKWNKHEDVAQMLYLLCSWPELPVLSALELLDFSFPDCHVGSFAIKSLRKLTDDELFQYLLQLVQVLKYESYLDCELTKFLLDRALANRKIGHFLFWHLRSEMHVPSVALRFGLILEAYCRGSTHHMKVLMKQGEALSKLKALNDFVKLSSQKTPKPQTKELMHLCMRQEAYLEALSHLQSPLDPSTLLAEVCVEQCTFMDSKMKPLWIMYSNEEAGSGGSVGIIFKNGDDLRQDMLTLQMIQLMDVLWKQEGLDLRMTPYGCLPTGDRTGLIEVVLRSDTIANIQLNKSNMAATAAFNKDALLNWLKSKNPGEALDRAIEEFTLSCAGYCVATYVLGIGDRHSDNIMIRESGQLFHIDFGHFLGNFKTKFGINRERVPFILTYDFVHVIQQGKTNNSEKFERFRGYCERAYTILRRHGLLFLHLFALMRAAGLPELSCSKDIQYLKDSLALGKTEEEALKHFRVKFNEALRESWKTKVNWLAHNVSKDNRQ
# [3] = molecular target: Phosphatidylinositol 4,5-bisphosphate 3-kinase catalytic subunit alpha isoform (Homo sapiens, UniProt P42336); test: as §1
# [4] = molecular target: Phosphatidylinositol 4,5-bisphosphate 3-kinase catalytic subunit beta isoform (Homo sapiens, UniProt P42338); test: as §1
# Sequence of Phosphatidylinositol 4,5-bisphosphate 3-kinase catalytic subunit beta isoform (P42338 whole entry, canonical isoform): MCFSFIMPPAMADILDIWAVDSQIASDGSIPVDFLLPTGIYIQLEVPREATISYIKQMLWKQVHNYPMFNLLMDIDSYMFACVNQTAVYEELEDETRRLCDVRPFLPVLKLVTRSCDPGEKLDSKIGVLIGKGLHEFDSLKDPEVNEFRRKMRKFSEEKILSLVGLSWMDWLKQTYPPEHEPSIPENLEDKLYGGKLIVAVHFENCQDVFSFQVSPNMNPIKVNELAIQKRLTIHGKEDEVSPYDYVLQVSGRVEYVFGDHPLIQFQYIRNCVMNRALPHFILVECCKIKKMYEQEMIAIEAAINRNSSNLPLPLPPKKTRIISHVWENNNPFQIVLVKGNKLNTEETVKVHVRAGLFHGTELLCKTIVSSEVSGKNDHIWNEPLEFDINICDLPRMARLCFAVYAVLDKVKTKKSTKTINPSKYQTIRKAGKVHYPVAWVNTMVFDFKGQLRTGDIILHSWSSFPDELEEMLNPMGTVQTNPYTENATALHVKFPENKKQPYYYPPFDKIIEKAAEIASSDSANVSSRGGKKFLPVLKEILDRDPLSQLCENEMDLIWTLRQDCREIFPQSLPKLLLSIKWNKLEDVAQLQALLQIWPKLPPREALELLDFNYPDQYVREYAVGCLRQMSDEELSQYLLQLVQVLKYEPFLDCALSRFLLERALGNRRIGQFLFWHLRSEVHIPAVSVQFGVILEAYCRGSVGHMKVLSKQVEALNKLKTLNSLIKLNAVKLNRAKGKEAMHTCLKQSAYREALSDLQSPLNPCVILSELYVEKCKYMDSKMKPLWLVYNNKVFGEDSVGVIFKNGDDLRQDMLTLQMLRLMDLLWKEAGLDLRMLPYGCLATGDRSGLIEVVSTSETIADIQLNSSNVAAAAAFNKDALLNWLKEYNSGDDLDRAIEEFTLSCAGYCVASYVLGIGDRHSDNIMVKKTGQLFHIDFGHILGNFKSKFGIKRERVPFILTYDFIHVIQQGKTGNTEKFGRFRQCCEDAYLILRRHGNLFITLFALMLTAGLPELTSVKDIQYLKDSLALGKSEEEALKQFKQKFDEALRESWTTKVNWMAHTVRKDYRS
# Sequence of Phosphatidylinositol 4,5-bisphosphate 3-kinase catalytic subunit gamma isoform (P48736 whole entry, canonical isoform): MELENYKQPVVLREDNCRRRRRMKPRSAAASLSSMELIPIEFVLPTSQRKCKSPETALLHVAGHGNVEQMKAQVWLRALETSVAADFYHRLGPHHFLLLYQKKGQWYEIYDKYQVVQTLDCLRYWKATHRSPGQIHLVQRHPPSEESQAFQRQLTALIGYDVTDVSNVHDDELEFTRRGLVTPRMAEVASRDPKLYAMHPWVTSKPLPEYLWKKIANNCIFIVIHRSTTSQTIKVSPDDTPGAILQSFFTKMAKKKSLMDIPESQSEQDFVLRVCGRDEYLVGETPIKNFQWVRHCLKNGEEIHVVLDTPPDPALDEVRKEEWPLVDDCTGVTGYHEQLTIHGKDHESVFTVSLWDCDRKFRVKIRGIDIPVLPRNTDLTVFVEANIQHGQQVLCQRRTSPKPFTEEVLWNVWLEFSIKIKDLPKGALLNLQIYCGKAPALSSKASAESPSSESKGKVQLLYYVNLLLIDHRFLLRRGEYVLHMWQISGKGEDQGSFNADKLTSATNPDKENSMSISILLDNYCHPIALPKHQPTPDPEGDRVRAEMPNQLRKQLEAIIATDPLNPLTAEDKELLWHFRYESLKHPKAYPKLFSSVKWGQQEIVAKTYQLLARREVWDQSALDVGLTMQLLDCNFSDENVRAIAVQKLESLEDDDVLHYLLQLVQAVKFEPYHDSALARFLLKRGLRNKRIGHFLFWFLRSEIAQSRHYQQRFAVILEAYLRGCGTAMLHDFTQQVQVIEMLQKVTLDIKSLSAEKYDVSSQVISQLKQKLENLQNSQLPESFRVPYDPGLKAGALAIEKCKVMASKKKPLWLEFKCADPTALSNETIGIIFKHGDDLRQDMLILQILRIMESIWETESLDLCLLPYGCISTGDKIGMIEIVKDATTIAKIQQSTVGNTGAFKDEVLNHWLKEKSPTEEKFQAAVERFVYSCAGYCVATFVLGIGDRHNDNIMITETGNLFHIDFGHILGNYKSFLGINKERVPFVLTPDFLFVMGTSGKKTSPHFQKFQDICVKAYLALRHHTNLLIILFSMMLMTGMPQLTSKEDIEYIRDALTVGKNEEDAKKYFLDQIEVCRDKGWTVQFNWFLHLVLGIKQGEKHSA
# Sequence of Phosphatidylinositol 4,5-bisphosphate 3-kinase catalytic subunit alpha isoform (P42336 whole entry, canonical isoform): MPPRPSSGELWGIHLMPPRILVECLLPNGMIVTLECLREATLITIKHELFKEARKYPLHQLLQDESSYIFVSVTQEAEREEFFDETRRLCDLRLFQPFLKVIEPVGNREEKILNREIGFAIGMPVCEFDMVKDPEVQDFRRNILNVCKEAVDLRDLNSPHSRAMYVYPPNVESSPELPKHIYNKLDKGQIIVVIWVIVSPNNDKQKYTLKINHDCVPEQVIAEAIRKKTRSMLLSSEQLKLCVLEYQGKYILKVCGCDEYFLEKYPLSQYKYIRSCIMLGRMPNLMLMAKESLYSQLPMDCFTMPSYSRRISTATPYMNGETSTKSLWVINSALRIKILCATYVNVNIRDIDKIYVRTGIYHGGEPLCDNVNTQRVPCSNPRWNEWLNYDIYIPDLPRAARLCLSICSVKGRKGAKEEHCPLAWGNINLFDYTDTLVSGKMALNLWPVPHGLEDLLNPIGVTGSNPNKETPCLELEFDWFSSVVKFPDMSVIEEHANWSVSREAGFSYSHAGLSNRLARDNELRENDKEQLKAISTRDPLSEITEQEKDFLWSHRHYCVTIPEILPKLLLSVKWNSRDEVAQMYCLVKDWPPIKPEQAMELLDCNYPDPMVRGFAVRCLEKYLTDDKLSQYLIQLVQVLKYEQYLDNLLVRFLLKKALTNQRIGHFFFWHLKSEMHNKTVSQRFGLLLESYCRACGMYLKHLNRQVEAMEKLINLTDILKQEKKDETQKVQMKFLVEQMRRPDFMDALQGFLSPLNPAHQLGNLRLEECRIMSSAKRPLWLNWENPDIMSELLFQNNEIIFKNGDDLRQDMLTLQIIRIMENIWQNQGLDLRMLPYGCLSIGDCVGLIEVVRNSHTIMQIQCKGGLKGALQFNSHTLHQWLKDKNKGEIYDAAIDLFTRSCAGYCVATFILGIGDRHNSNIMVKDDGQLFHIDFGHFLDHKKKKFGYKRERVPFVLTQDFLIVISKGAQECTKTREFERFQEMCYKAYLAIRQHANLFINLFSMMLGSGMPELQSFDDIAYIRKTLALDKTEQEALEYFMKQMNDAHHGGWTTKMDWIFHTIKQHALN
compound,measurement,setting,value
c1cc(-c2nc(N3CCOCC3)c3oc4ncc(CN5CCCCC5)cc4c3n2)c2cc[nH]c2c1,IC50,[1],4950 nM
same,IC50,[2],10 nM
same,IC50,[3],508 nM
same,IC50,[4],503 nM
